Data as given in PubChem BioAssay (NCI).
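GI50 = concentration required for 50% inhibition of growth. TGI: total growth inhibition.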

Legend:
Assay in all cases: NCI-60 cell line screen, 384-well format
[1] = system: NCI/ADR-RES ovarian
[2] = system: MDA-MB-468 breast
[3] = system: RPMI-8226 leukemia
[4] = system: MALME-3M melanoma
[5] = system: SF-295 CNS
[6] = system: SNB-75 CNS
[7] = system: RXF 393 renal
[8] = system: K-562 leukemia
[9] = system: OVCAR-3 ovarian
[10] = system: MDA-MB-231 breast
[11] = system: SF-539 CNS
[12] = system: NCI-H522 lung
[13] = system: MCF7 breast
[14] = system: HS 578T breast
[15] = system: OVCAR-4 ovarian
[16] = system: CCRF-CEM leukemia
[17] = system: KM12 colon
[18] = system: A498 renal
[19] = system: NCI-H322M lung
[20] = system: DU-145 prostate
[21] = system: HOP-92 NSCLC
[22] = system: EKVX NSCLC
[23] = system: UACC-62 melanoma
[24] = system: HT29 colon
[25] = system: COLO 205 colon
[26] = system: CAKI-1 renal
[27] = system: SK-MEL-5 melanoma
[28] = system: SNB-19 CNS
[29] = system: HL-60(TB) leukemia
[30] = system: U251 glioblastoma
[31] = system: M14 melanoma
[32] = system: NCI-H460 NSCLC
[33] = system: SK-OV-3 ovarian
[34] = system: NCI-H23 lung
[35] = system: MOLT-4 leukemia
[36] = system: 786-0 renal
[37] = system: TK-10 renal
[38] = system: A549 NSCLC
[39] = system: SW-620 colon
[40] = system: UACC-257 melanoma
[41] = system: T-47D breast
[42] = system: BT-549 breast
[43] = system: SF-268 CNS
[44] = system: UO-31 renal
[45] = system: NCI-H226 lung
[46] = system: ACHN renal
[47] = system: MDA-MB-435 melanoma
[48] = system: LOX IMVI melanoma
[49] = system: IGROV1 ovarian
[50] = system: SN12C renal
[51] = system: SK-MEL-28 melanoma
[52] = system: HOP-62 NSCLC
[53] = system: OVCAR-8 ovarian
[54] = system: PC-3 prostate
[55] = system: HCC-2998 colon
[56] = system: HCT-15 colon
[57] = system: HCT-116 colon
[58] = system: OVCAR-5 ovarian

NC(=O)/C(=C/n1cnc(-c2cc(C(F)(F)F)cc(C(F)(F)F)c2)n1)c1cncnc1
GI50 [1]: 0.222 µM
TGI [1]: 1.68 µM
GI50 [2]: 0.073 µM
TGI [2]: 0.247 µM
TGI [3]: 0.0241 µM
GI50 [4]: 0.0322 µM
TGI [4]: 0.483 µM
GI50 [5]: 0.327 µM
TGI [5]: 2.69 µM
GI50 [6]: 0.0154 µM
TGI [6]: 0.0419 µM
GI50 [7]: 0.0244 µM
TGI [7]: 0.116 µM
GI50 [8]: 0.0372 µM
TGI [8]: 1.03 µM
GI50 [9]: 0.028 µM
TGI [9]: 0.171 µM
GI50 [10]: 0.0295 µM
TGI [10]: 0.253 µM
GI50 [11]: 0.0275 µM
TGI [11]: 0.084 µM
GI50 [12]: 0.0249 µM
TGI [12]: 0.184 µM
GI50 [13]: 0.0478 µM
TGI [13]: 10.9 µM
GI50 [14]: 0.033 µM
TGI [14]: 0.244 µM
GI50 [15]: 0.249 µM
TGI [15]: 0.78 µM
GI50 [16]: 0.0474 µM
TGI [16]: 0.188 µM
GI50 [17]: 0.191 µM
TGI [17]: 1.93 µM
GI50 [18]: 0.042 µM
TGI [18]: 0.232 µM
GI50 [19]: 0.297 µM
TGI [19]: 2.9 µM
GI50 [20]: 0.235 µM
TGI [20]: 3.94 µM
GI50 [21]: 0.438 µM
TGI [21]: 2.06 µM
GI50 [22]: 0.591 µM
TGI [22]: 4.14 µM
GI50 [23]: 0.0572 µM
TGI [23]: 0.241 µM
GI50 [24]: 0.0656 µM
TGI [24]: 0.943 µM
GI50 [25]: 0.0441 µM
TGI [25]: 1.74 µM
GI50 [26]: 0.022 µM
TGI [26]: 1.34 µM
GI50 [27]: 0.192 µM
TGI [27]: 1.19 µM
GI50 [28]: 0.188 µM
TGI [28]: 1.88 µM
GI50 [29]: 0.0153 µM
TGI [29]: 0.131 µM
GI50 [30]: 0.12 µM
TGI [30]: 0.785 µM
GI50 [31]: 0.146 µM
TGI [31]: 0.485 µM
GI50 [32]: 0.0296 µM
TGI [32]: 0.131 µM
GI50 [33]: 0.0922 µM
TGI [33]: 8.97 µM
GI50 [34]: 0.0713 µM
TGI [34]: 1.12 µM
GI50 [35]: 0.0145 µM
TGI [35]: 0.0282 µM
GI50 [36]: 0.0504 µM
TGI [36]: 1.22 µM
GI50 [37]: 0.0475 µM
TGI [37]: 1.35 µM
GI50 [38]: 0.196 µM
TGI [38]: 1.64 µM
GI50 [39]: 0.041 µM
TGI [39]: 1.41 µM
GI50 [40]: 0.591 µM
TGI [40]: 2.12 µM
GI50 [41]: 0.192 µM
TGI [41]: 1.58 µM
GI50 [42]: 0.0121 µM
TGI [42]: 0.0455 µM
GI50 [43]: 0.0267 µM
TGI [43]: 0.0953 µM
GI50 [44]: 0.269 µM
TGI [44]: 1.57 µM
GI50 [45]: 0.0316 µM
TGI [45]: 0.4 µM
GI50 [46]: 0.329 µM
TGI [46]: 2.67 µM
GI50 [47]: 0.0409 µM
TGI [47]: 0.17 µM
GI50 [48]: 0.144 µM
TGI [48]: 0.687 µM
GI50 [49]: 0.296 µM
TGI [49]: 2.13 µM
GI50 [50]: 0.598 µM
TGI [50]: 2.26 µM
GI50 [51]: 0.106 µM
TGI [51]: 0.372 µM
GI50 [52]: 0.229 µM
TGI [52]: 0.995 µM
GI50 [53]: 0.0378 µM
TGI [53]: 1.05 µM
GI50 [54]: 0.0261 µM
TGI [54]: 0.11 µM
GI50 [55]: 0.0605 µM
TGI [55]: 0.287 µM
GI50 [56]: 0.0927 µM
TGI [56]: 1.18 µM
GI50 [57]: 0.0401 µM
TGI [57]: 0.232 µM

COc1cc2ncnc(Oc3cccc(NC(=O)Nc4cc(C(C)(C)C(F)(F)F)on4)c3)c2cc1OC
GI50 [1]: 2.03 µM
TGI [1]: 4.78 µM
GI50 [2]: 0.747 µM
TGI [2]: 2.31 µM
GI50 [58]: 1.08 µM
TGI [58]: 4.57 µM
GI50 [3]: 1.76 µM
TGI [3]: 3.14 µM
GI50 [4]: 0.0146 µM
TGI [4]: 0.0693 µM
GI50 [5]: 2.06 µM
TGI [5]: 4.52 µM
GI50 [6]: 1.86 µM
TGI [6]: 3.95 µM
GI50 [7]: 1.54 µM
TGI [7]: 3.44 µM
GI50 [9]: 1.75 µM
TGI [9]: 4.6 µM
GI50 [10]: 0.192 µM
TGI [10]: 3.98 µM
GI50 [11]: 1.35 µM
TGI [11]: 2.78 µM
GI50 [12]: 0.242 µM
TGI [12]: 1.61 µM
GI50 [13]: 1.97 µM
TGI [13]: 7.65 µM
GI50 [14]: 1.54 µM
TGI [14]: 2.99 µM
GI50 [15]: 3.14 µM
TGI [15]: 12.4 µM
GI50 [16]: 1.45 µM
TGI [16]: 2.77 µM
GI50 [17]: 1.92 µM
TGI [17]: 4.43 µM
GI50 [18]: 0.81 µM
TGI [18]: 5.31 µM
GI50 [19]: 0.865 µM
TGI [19]: 5.18 µM
GI50 [20]: 2.79 µM
TGI [20]: 11 µM
GI50 [21]: 1.26 µM
TGI [21]: 2.55 µM
GI50 [22]: 1.05 µM
TGI [22]: 3.29 µM
GI50 [23]: 0.0178 µM
TGI [23]: 0.267 µM
GI50 [24]: 0.174 µM
TGI [24]: 1.65 µM
GI50 [25]: 0.0481 µM
TGI [25]: 1.59 µM
GI50 [26]: 0.613 µM
TGI [26]: 3.6 µM
GI50 [27]: 0.206 µM
TGI [27]: 1.72 µM
GI50 [28]: 4.2 µM
TGI [28]: 14 µM
GI50 [29]: 0.309 µM
TGI [29]: 1.75 µM
GI50 [30]: 1.67 µM
TGI [30]: 3.17 µM
GI50 [31]: 0.0193 µM
TGI [31]: 0.214 µM
GI50 [32]: 1.54 µM
TGI [32]: 4.46 µM
GI50 [33]: 0.871 µM
TGI [33]: 3.14 µM
GI50 [34]: 0.168 µM
TGI [34]: 1.47 µM
GI50 [35]: 1.11 µM
TGI [35]: 2.31 µM
GI50 [36]: 1.52 µM
TGI [36]: 3.77 µM
GI50 [37]: 1.69 µM
TGI [37]: 4.03 µM
GI50 [38]: 1.26 µM
TGI [38]: 5.57 µM
GI50 [39]: 1.18 µM
TGI [39]: 3.67 µM
GI50 [40]: 0.0575 µM
TGI [40]: 0.667 µM
GI50 [41]: 1.11 µM
TGI [41]: 3.44 µM
GI50 [42]: 1.66 µM
TGI [42]: 3.08 µM
GI50 [43]: 0.216 µM
TGI [43]: 1.1 µM
GI50 [44]: 0.976 µM
TGI [44]: 3.15 µM
GI50 [45]: 0.384 µM
TGI [45]: 7.55 µM
GI50 [46]: 0.399 µM
TGI [46]: 2.39 µM
GI50 [47]: 0.118 µM
TGI [47]: 1.94 µM
GI50 [48]: 0.187 µM
TGI [48]: 1.02 µM
GI50 [49]: 0.222 µM
TGI [49]: 1.27 µM
GI50 [50]: 0.85 µM
TGI [50]: 3.28 µM
GI50 [51]: 0.0351 µM
TGI [51]: 0.541 µM
GI50 [52]: 1.53 µM
TGI [52]: 3.01 µM
GI50 [53]: 2.3 µM
TGI [53]: 9.64 µM
GI50 [54]: 2.51 µM
TGI [54]: 5.73 µM
GI50 [55]: 1.23 µM
TGI [55]: 2.57 µM
GI50 [56]: 1.86 µM
TGI [56]: 6.28 µM
GI50 [57]: 0.581 µM
TGI [57]: 1.97 µM
